# Measurements taken from patent US7728174B2, “Continuous hydrogenation processes for the preparation of xylylenediamines” (BASF SE, priority 2005, dated 2010).
# Test: solubility of IPN in ammonia, meta-xylylenediamine and their mixtures
# Assay type: physicochemical
smiles,measurement,setting,value
"N#Cc1cccc(C#N)c1 [IPN, 1,3-dicyanobenzene]",solubility of IPN in the mixture,"Example 1 mixture: 178 g/h circulation stream [13] and 94 g/h fresh ammonia, at 60° C.",about 30 % by weight
same,solubility of IPN in the mixture,"Example 2 mixture: 320 g/h circulation stream [13] and 40 g/h fresh ammonia, at 60° C.",about 25 % by weight
same,solubility of IPN,"in MXDA, at 70° C.",approx. 20 % by weight
same,solubility of IPN,"in NH3, at 60° C.",approx. 44 % by weight
same,solubility of IPN,"in a mixture of approximately equal parts by mass of meta-xylylenediamine and liquid ammonia, at 60° C.",approx. 30 % by weight
same,solubility of IPN,"in meta-xylylenediamine, at 60° C.",approx. 15 % by weight
